Measured values reported in article PMC12147132 (2025).

Columns and labels:
[1] = test system: AD-aptamer subunits L1F + L2Q (DNA, aptamer) ATAACGCATTTTGTTATGCGGAGGAAGGTAT/AATGCGTTATTAGAATT/ATACCTGGGGGAGTATTAACATGTTCCATCTT/TTAAATCAAGATGGAAC; experiment: not given in the source (Figure S2)
[2] = test system: AD-aptamer subunits L1F + L2Q (DNA, aptamer) ATAACGCATTTTGTTATGCGGAGGAAGGTAT/AATGCGTTATTAGAATT/ATACCTGGGGGAGTATTAACATGTTCCATCTT/TTAAATCAAGATGGAAC; experiment: not stated in material (Figure S4)
[3] = test system: BB' (DNA, aptamer) CTGTTCAGCGATTACTATGCGGAGGAAGGTAT/ATACCTGGGGGAGTATTAGTACACCCATGTTCCTGA; experiment: DNAzyme substrate cleavage fluorescence; conditions: Mg2+; qualitative; AD 4-5 mM with ADA present
[4] = test system: AA' (DNA, aptamer) GTCCTCAGCGATTACTATGCGGAGGAAGGTAT/ATACCTGGGGGAGTATTAGTACACCCATGTTTCAGT; experiment: DNAzyme substrate cleavage fluorescence; conditions: Mg2+; qualitative; AD 4-5 mM with ADA present
[5] = test system: BA' (DNA, aptamer) CTGTTCAGCGATTACTATGCGGAGGAAGGTAT/ATACCTGGGGGAGTATTAGTACACCCATGTTTCAGT; experiment: DNAzyme substrate cleavage fluorescence; conditions: Mg2+; qualitative; AD 4-5 mM with ADA present
[6] = test system: D1/D2 (AD-stabilized Mg2+-dependent DNAzyme; same sequences as constituent AB') (DNA, aptamer) GTCCTCAGCGATTACTATGCGGAGGAAGGTAT/ATACCTGGGGGAGTATTAGTACACCCATGTTCCTGA; experiment: DNAzyme substrate cleavage fluorescence; conditions: qualitative, AD 3-5 mM with ADA present
[7] = highest concentration not in material

Row | Structure (SMILES) | binding [1, 7] | binding ([1]; qualitative) | other results
1 | Cc1cn([C@H]2C[C@H](O)[C@@H](COP(=O)(O)OP(=O)(O)OP(=O)(O)O)O2)c(=O)[nH]c1=O | no |  | 
2 | Nc1ncnc2c1ncn2[C@@H]1O[C@H](CO)[C@@H](O)[C@H]1O |  |  | Kd ([2]; not perturbed by ADA or inosine): 11.8 ± 2.3 µM; binding [3]: yes; binding [4]: yes; binding [5]: yes; binding [6]: yes
3 | Nc1ncnc2c1ncn2[C@@H]1O[C@H](COP(=O)(O)O)[C@@H](O)[C@H]1O |  | yes | 
4 | Nc1ncnc2c1ncn2[C@@H]1O[C@H](COP(=O)(O)OP(=O)(O)O)[C@@H](O)[C@H]1O |  | yes | 
5 | O=c1[nH]cnc2c1ncn2[C@@H]1O[C@H](CO)[C@@H](O)[C@H]1O |  |  | binding [2, 7]: no

Second part, led by results:

Row | binding [1, 7] | binding ([1]; qualitative) | Structure (SMILES) | other results
6 | no |  | Nc1ccn([C@@H]2O[C@H](COP(=O)(O)OP(=O)(O)OP(=O)(O)O)[C@@H](O)[C@H]2O)c(=O)n1 | 
7 | no |  | Nc1nc2c(ncn2[C@@H]2O[C@H](COP(=O)(O)OP(=O)(O)OP(=O)(O)O)[C@@H](O)[C@H]2O)c(=O)[nH]1 | 
8 |  | yes | Nc1ncnc2c1ncn2[C@@H]1O[C@H](COP(=O)(O)OP(=O)(O)OP(=O)(O)O)[C@@H](O)[C@H]1O | 
9 | no |  | O=c1ccn([C@@H]2O[C@H](COP(=O)(O)OP(=O)(O)OP(=O)(O)O)[C@@H](O)[C@H]2O)c(=O)[nH]1 | 
